From patent publication US6472415B1, “Androgen receptor suppressors in the therapy and diagnosis of prostate cancer, alopecia and other hyper-androgenic syndromes” (priority 1998, dated 2002)
Like-named read-outs stand apart in the source and are kept apart here.

Columns and labels:
[1] = target: T1, AR (Homo sapiens, UniProt P10275); test: Interaction of non-radioactive iodine compounds with AR; conditions: compounds containing non-radioactive iodine
T1 sequence (P10275 1-920): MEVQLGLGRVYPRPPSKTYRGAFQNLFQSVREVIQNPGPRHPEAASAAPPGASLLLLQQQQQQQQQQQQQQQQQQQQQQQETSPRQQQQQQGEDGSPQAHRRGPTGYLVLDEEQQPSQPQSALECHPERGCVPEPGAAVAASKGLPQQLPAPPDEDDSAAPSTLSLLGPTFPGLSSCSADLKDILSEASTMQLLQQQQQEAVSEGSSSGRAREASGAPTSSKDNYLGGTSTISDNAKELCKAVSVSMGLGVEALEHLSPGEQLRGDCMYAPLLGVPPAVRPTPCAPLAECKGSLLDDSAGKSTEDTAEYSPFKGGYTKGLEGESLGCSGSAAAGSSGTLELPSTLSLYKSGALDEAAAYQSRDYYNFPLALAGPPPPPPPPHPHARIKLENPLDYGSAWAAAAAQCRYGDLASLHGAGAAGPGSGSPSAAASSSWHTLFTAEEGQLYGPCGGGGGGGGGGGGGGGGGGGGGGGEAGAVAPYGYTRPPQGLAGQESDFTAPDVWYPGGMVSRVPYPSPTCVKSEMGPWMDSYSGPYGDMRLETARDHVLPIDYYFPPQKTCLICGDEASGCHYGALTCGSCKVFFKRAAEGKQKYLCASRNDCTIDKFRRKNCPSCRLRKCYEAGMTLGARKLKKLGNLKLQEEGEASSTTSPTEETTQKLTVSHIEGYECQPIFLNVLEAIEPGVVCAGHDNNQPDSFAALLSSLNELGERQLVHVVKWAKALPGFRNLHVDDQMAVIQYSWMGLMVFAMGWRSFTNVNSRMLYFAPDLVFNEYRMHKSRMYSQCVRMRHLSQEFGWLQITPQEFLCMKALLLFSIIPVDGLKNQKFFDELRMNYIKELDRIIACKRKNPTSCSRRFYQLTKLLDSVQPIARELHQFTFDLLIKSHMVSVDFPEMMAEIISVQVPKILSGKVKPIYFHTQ

[2] = rabbits, topical twice daily, ten days
Experimental: (§1) Serum samples were collected at 2, 5 and 21 hours after the first application, and once every other day, thereafter. Serum samples were processed and analyzed by HPLC.
The rabbits were also observed daily for signs of cutaneous irritation.

[3] = probit analysis
[4] = male and female Wistar rats, highest dose tested
[5] = Systemic toxicity, repeated i.p. injection in mice; type: in vivo; conditions: i.p.
Experimental: Systemic toxicity was orientationally evaluated by i.p. injection every 2nd day in mice. […] For BP-34, the corresponding values were 150 mg/kg bw and 300 mg/kg bw.
The maximum tolerated dose should thus be approximately 300 mg/kg. For BP-34, i.p. injections of 100-300 mg/kg produce no mortalities in mice. […] Therefore, the maximum tolerated dose of BP-34 should be approximately 250 mg/kg.

[6] = four rabbits, topically twice daily (0.6 mg/kg-day), ten days; limit of detection approximately 10 ng/ml
Experimental: as §1

[7] = test system: androgenic alopecia
[8] = Permadi et al. 1993; cited from earlier work

## CC1(C)C(=O)N(c2ccc(C#N)c(C(F)(F)F)c2)C(=S)N1C/C=C/I [BP-305, 4-[3′-trans-(2″-propenyl-3″-iodo)-4′,4′-dimethyl-5′-oxo-2′-thioxo-1-imidazolidinyl]-2-trifluoromethylbenzonitrile]
[1]
  Interaction with AR as compared to controls: shown to interact with AR

## CC(O)(CNC(=O)C(F)(F)F)C(=O)Nc1ccc([N+](=O)[O-])c(C(F)(F)F)c1 (stereo not shown) [BP-766, 4-nitro-3-trifluoromethyl-N-(2′-hydroxy-2′-methyl-3′-N-(trifluoromethylamido)propionyl) aniline]
[2]
  Signs of cutaneous irritation: No signs of irritation
[3]; female NMRI mice
  LD50, acute oral: 2232.0 mg/kg
[3]; male NMRI mice
  LD50, acute oral: 2871.7 mg/kg
60/40 EtOH/H2O, 55° C., 0 hours
  % BP-766: 100%
60/40 EtOH/H2O, 55° C., 24 hours
  % BP-766: 98.1%
60/40 EtOH/H2O, 55° C., 48 hours
  % BP-766: 98.2%
60/40 EtOH/H2O, RT, 0 hours
  % BP-766: 100%
60/40 EtOH/H2O, RT, 24 hours
  % BP-766: 99.9%
60/40 EtOH/H2O, RT, 48 hours
  % BP-766: 99.69%
Isopropanol (3-5% water), 55° C., 0 hours
  % BP-766: 100%
Isopropanol (3-5% water), 55° C., 6 hours
  % BP-766: 99.6%
Isopropanol (3-5% water), 55° C., 24 hours
  % BP-766: 99.1%
Isopropanol (3-5% water), 55° C., 144 hours
  % BP-766: 98.7%
Anhydrous isopropanol, 50° C., 0 weeks
  % BP-766: 100%
Anhydrous isopropanol, 50° C., 1 week
  % BP-766: 99.6%
Anhydrous isopropanol, 50° C., 2 weeks
  % BP-766: 99.4%
Anhydrous isopropanol, 50° C., 3 weeks
  % BP-766: 99.3%
Anhydrous isopropanol, 50° C., 4 weeks
  % BP-766: 99.2%
Anhydrous isopropanol, 50° C., 5 weeks
  % BP-766: 98.9%
Anhydrous isopropanol, 50° C., 6 weeks
  % BP-766: 98.8%
Anhydrous isopropanol, 50° C., 7 weeks
  % BP-766: 98.3%
Anhydrous isopropanol, 50° C., 8 weeks
  % BP-766: 98.4%
[4]
  LD50, acute oral: > 2500 mg/kg body weight
[5]
  Maximum tolerated dose: approximately 300 mg/kg
[5]; daily for seven days
  LD50 (daily dose for seven days that resulted in 50% mortality): 450 mg/kg bw
[6]
  BP-766 and/or BP-34 in serum after topical application: No. BP-766 or BP-34 were found in any of the samples
[7]; six volunteers (4 male, 2 female), 2% solution, 1 ml twice daily, after 2 weeks
  Effect on effluvium of the frontal hairline: arrested the effluvium of the frontal hairline in all six volunteers
[7]; six volunteers, 2% solution in anhydrous isopropanol, 1 ml twice daily (0.6 mg/kg), 8 weeks
  Dermal irritation: no dermal irritation
[7]; two volunteers, after 4 months use
  Regrowth: evident regrowth

## O=C(O)C(F)(F)F [trifluoroacetic acid]
[8]
  Toxicity when fed to mice: no toxicity
